SMILES strings stand for the structures. Converted amounts (≈) assume the structure as drawn.

The IC50 is the concentration at which inhibition is half-maximal. Read a high IC50 as lower potency. A word on the MIC50: it is an inhibitory concentration at the 50% level, which refers to growth in some studies and to a panel of isolates in others. Read a low MIC50 as greater potency. The MIC90 is an inhibitory concentration at the 90% level, which refers to growth in some studies and to a panel of isolates in others. The low end stands for higher susceptibility, the high end for lower susceptibility. By viability is commonly meant a per cent measure of how many cells are alive, often set against a control.

The nature of assay [1]: Cu^+ binding by 1H NMR titration. The following applies: 1H NMR titration with Cu(MeCN)4BF4, CD3CN/CDCl3 4/1, 298 K. On the procedure: Binding abilities and complexation constants of the examples of calix[4]arenes of the present invention and the comparative examples with Cu^+ were evaluated by ^1H NMR titrations at 298 K using copper(I)tetrakis(acetronitrile)tetrafluoroborate.
For example, for each separate calix[4]arene a stock solution of the tested calix[4]arene was prepared in a CD3CN/CDCl3, 4/1 mixture. Using this stock solution, a Cu(MeCN)4BF4 solution was prepared and added by steps of 0.25 equivalent of copper(I) up until 1 equivalent and then by steps of 0.5 equivalent until a total of at least 2 equivalents. ^1H NMR spectra were recorded at a 400 MHz spectrometer at 298 K for the stock solutions of the calix[4]arenes and after each addition of Cu(MeCN)4BF4.
Calix[4]arenes for which a gradual change of the chemical shifts of the ^1H NMR signals (>0.1 ppm for at least one of the signals) was observed upon addition of up to 4-5 equivalents of Cu(MeCN)4BF4 were considered to show weak binding.

The test system of assay [2] is A549 human lung cancer cell line. Description: Inhibition of A549 cell proliferation (cell count). The following applies: 2 μM, until 72 hours. The format is cell-based. On the procedure:
The inhibition of a A549 human lung cancer cell line proliferation by the calix[4]arene of the formula (2) was determined by exposure of said A549 human lung cancer cell line to a concentration of 2 μM of the calix[4]arene of the formula (2) until 72 hours. The absolute number of cells were counted in the treated and untreated conditions before treatment (N0) and after 72 hours (Nt).
The FIG. 1 is a graph showing: • the profile of the proliferation index Nt/N0 of the A549 cells after exposure with the calix[4]arene of the formula (2) with respect to the time (i.e. the curve entitled “calix[4]arene (2)”), • the profile of the proliferation index Nt/N0 of the A549 cells without any exposure with the calix[4]arene of the formula (2) with respect to the time (i.e. the curve entitled “untreated”).
“Nt” is number of cells at time “t” and “No” is number of cells before treatment.

Assay [3] concerns PC9 human lung cancer cell line. Description: Inhibition of PC9 cell proliferation (cell count). It is filed as cell-based. The following applies: 3 μM, until 72 hours. The procedure:
The inhibition of a PC9 human lung cancer cell line proliferation by the calix[4]arene of the formulation (2) was determined by exposure of said PC9 human lung cancer cell line to a concentration of 3 μM of the compound of the formula (2) until 72 hours. The absolute number of cells were counted in the treated and untreated conditions before treatment (N0) and after 72 hours (Nt).
The FIG. 2 is a graph showing: • the profile of the proliferation index Nt/N0 of the PC9 cells after exposure with the calix[4]arene of the formula (2) with respect to the time (i.e. the curve entitled “calix[4]arene (2)”), • the profile of the proliferation index Nt/N0 of the PC9 cells without any exposure with the calix[4]arene of the formula (2) with respect to the time (i.e. the curve entitled “untreated”).

For assay [4], the system named is H322 lung carcinoma cells. The experiment in a line: MTS cytotoxicity assay on H322. The following applies: NCI-H322; H322, 72 hours of treatment. The format is cell-based. (Tetrazolium assays rely on reduction of a dye to a coloured formazan, in cell work by metabolically active cells.)
Description: H322 lung carcinoma cells were seeded in 96-well plates together with the calix[4]arene of the formula (2). Cells were grown in RPMI-1640 supplemented with GlutaMAX™ (Gibco™) and fetal calf serum (FCS, 10%) and treated with a broad range of concentrations of the calix[4]arene of the formula (2). After 72 hours of treatment, the cytotoxicity was measured by means of the IC50 value, using the kit “CellTiter 96R AQuous One Solution Cell Proliferation Assay (MTS)” from Promega™. Following 30 minutes of incubation with the MTS reagent, the endpoint measurements were done in triplicate at 485 nm, using a fluorescence plate reader.
H322 lung carcinoma cells were seeded in 96-well plates together with the compound of the 2nd comparative example of the formula (XI). Cells were grown in RPMI-1640 supplemented with GlutaMAX™ (Gibco™) and fetal calf serum (FCS, 10%) and treated with a broad range of concentrations of the 2nd comparative example of the formula (XI). After 72 hours of treatment, the cytotoxicity was measured by means of the IC50 value, using the kit “CellTiter 96R AQuous One Solution Cell Proliferation Assay (MTS)” from Promega™. Following 30 minutes of incubation with the MTS reagent, the endpoint measurements were done in triplicate at 485 nm, using a fluorescence plate reader.
H322 lung carcinoma cells were seeded in 96-well plates together with the 1st comparative example of the formula (X). Cells were grown in RPMI-1640 supplemented with GlutaMAX™ (Gibco™) and fetal calf serum (FCS, 10%) and treated with a broad range of concentrations of the compound of the formula (X). After 72 hours of treatment, the cytotoxicity was measured by means of the IC50 value, using the kit “CellTiter 96R AQuous One Solution Cell Proliferation Assay (MTS)” from Promega™. Following 30 minutes of incubation with the MTS reagent, the endpoint measurements were done in triplicate at 485 nm, using a fluorescence plate reader.
H322 lung carcinoma cells were seeded in 96-well plates together with the tested calix[4]arenes. Cells were grown in RPMI-1640 supplemented with GlutaMAX™ (Gibco™) and fetal calf serum (FCS, 10%) and treated with a broad range of concentrations of the tested calix[4]arenes. After 72 hours of treatment, the cytotoxicity was measured by means of the IC50 value, using the kit “CellTiter 96R AQuous One Solution Cell Proliferation Assay (MTS)” from Promega™. Following 30 minutes of incubation with the MTS reagent, the endpoint measurements were done in triplicate at 485 nm, using a fluorescence plate reader.
The subject of assay [5] is A549 human lung cancer cells. Description: MTS cytotoxicity assay on A549. The format is cell-based. The following applies: A549, 72 hours of treatment.
Description: A549 human lung cancer cells were seeded in 96-well plates together with the calix[4]arene of the formula (2). Cells were grown in RPMI-1640 supplemented with GlutaMAX™ (Gibco™) and fetal calf serum (FCS, 10%) and treated with a broad range of concentrations of the calix[4]arene of the formula (2). After 72 hours of treatment, the cytotoxicity was measured by means of the IC50 value, using the kit “CellTiter 96R AQuous One Solution Cell Proliferation Assay (MTS)” from Promega™. Following 30 minutes of incubation with the MTS reagent, the endpoint measurements were done in triplicate at 485 nm, using a fluorescence plate reader.
A549 human lung cancer cells were seeded in 96-well plates together with the compound of the 2nd comparative example of the formula (XI). Cells were grown in RPMI-1640 supplemented with GlutaMAX™ (Gibco™) and fetal calf serum (FCS, 10%) and treated with a broad range of concentrations of the 2nd comparative example of the formula (XI). After 72 hours of treatment, the cytotoxicity was measured by means of the IC50 value, using the kit “CellTiter 96R AQuous One Solution Cell Proliferation Assay (MTS)” from Promega™. Following 30 minutes of incubation with the MTS reagent, the endpoint measurements were done in triplicate at 485 nm, using a fluorescence plate reader. […]
The test system of assay [6] is PC9 human lung cancer cells. The experiment in a line: MTS cytotoxicity assay on PC9. It is filed as cell-based. The settings on record: PC9, 72 hours of treatment.
Description: PC9 human lung cancer cells were seeded in 96-well plates together with the calix[4]arene of the formula (2). Cells were grown in RPMI-1640 supplemented with GlutaMAX™ (Gibco™) and fetal calf serum (FCS, 10%) and treated with a broad range of concentrations of the calix[4]arene of the formula (2). After 72 hours of treatment, the cytotoxicity was measured by means of the IC50 value, using the kit “CellTiter 96R AQuous One Solution Cell Proliferation Assay (MTS)” from Promega™. Following 30 minutes of incubation with the MTS reagent, the endpoint measurements were done in triplicate at 485 nm, using a fluorescence plate reader.
PC9 human lung cancer cells were seeded in 96-well plates together with the 2nd comparative example of the formula (XI). Cells were grown in RPMI-1640 supplemented with GlutaMAX™ (Gibco™) and fetal calf serum (FCS, 10%) and treated with a broad range of concentrations of the compound of the 2nd comparative example of the formula (XI). After 72 hours of treatment, the cytotoxicity was measured by means of the IC50 value, using the kit “CellTiter 96R AQuous One Solution Cell Proliferation Assay (MTS)” from Promega™. Following 30 minutes of incubation with the MTS reagent, the endpoint measurements were done in triplicate at 485 nm, using a fluorescence plate reader. […]
The test system of assay [7] is Non-malignant MRC5-SVII cells. Description: MTS cytotoxicity assay on MRC5-SVII. The format is cell-based. The settings on record: 72 hours of treatment. On the procedure:
Cells were grown in Minimal Essential Medium—Non Essential Amino Acids (MEM NEAA) culture medium from Gibco™, supplemented with sodium pyruvate ([…]), and fetal calf serum (FCS, 10%) and treated with a broad range of concentrations of the 2nd comparative example of the formula (XI).

For assay [8], the system named is Non-malignant MSC cells. Description: MTS cytotoxicity assay on MSC. The settings on record: 72 hours of treatment. It is filed as cell-based.
Description: After 72 hours of treatment, the cytotoxicity was measured by means of the IC50 value, using the kit “CellTiter 96R AQuous One Solution Cell Proliferation Assay (MTS)” from Promega™. Following 30 minutes of incubation with the MTS reagent, the endpoint measurements were done in triplicate at 485 nm, using a fluorescence plate reader.
Assay [9] has as its system vancomycin resistant enterococcus. Description: Minimal inhibitory concentration, bacterial growth in 96 well plate. It is filed as cell-based. The settings on record: VRE, with 100 μM CuSO4. The procedure: The efficiency of a compound of interest on a bacterial strain is evaluated by measuring its minimal inhibitory concentration (hereafter abbreviated “MIC”). MICs are measured by following the bacterial growth in a 96 wells plate exposed to a range of concentrations of the compound of interest.
A small amount of the frozen bacteria (stored at −80° C. in glycerol) was mixed in 25 mL of Lysogeny broth (i.e. a nutritionally rich medium used for the growth of bacteria which comprises 10 g of tryptone, 5 g of yeast extract, 10 g of NaCl, and 1 L of distilled water; with the pH adjusted to 7.0 with 1 N NaOH; and autoclaved for 25 min at 120° C.) in a falcon tube and then placed in an incubation chamber at 180 rpm and 37° C. After 16 to 24 hours, 25 mL of Lysogeny broth was added to the growth media and placed back in the incubation chamber for two hours. The absorption of the resulting solution was measured at 600 nm (hereafter abbreviated “OD600”) using Lysogeny broth as blank and then the solution was diluted to 0.1±0.01.
96 Well plates were filled with 20 μL of 1 mM CuSO4 solution, then 160 μL of growth media was added. Finally, 20 μL of DMSO solutions containing a range of concentrations of the tested calix[4]arene of the formula (2) was added. […] For each condition three wells were used. The top and bottom rows were used as control, the top row only contained Lysogeny broth and the bottom one contained the growth media, DMSO and CuSO4. The plates were placed in the incubator for 16 to 24 hours. The absorbance of each well was measured at 600 nm with a multiplate reader (Fluostar from Optima).
The ratio between the average absorption value of three wells (OD) with the same conditions minus the average of the 12 negative controls (OD(negative)) and the average of the 12 positive control (OD(positive)) minus the negative control yielded the growth value which was subtracted from one and multiplied by a hundred to give the inhibition percentage (Equation 1).
The MIC50 or MIC90 is defined by the lowest concentration for which the inhibition value is at/over 50 or 90%. For a given experimental conditions three rows are used in a plate. The whole process was also repeated three times to obtain triplicates. MIC values were the determined by the average values obtained.

Assay [10] deals with PC9 human lung cancer cells. Description: MTS cytotoxicity assay, combination with CuCl2, PC9. The settings on record: Homo sapiens, 72 h, read-out: percentage of cell viability.
Description: PC9 human lung cancer cells were seeded in 96-well plates together with the calix[4]arene of the formula (2) and CuCl2. Cells were grown in RPMI-1640 supplemented with GlutaMAX™ (Gibco™) and fetal calf serum (FCS, 10%) treated with a broad range of concentrations of the calix[4]arene of the formula (2) or/and CuCl2 from Merck. After 72 hours of treatment, the cytotoxicity was measured by means of the IC50 value, using the kit “CellTiter 96R AQuous One Solution Cell Proliferation Assay (MTS)” from Promega™. Following 30 minutes of incubation with the MTS reagent, the endpoint measurements were done in triplicate at 485 nm, using a fluorescence plate reader.

With `CCCOc1c2cccc1Cc1cccc(c1OCc1nccn1C)Cc1cccc(c1OCCC)Cc1cccc(c1OCc1nccn1C)C2` [(2)], the “Cu^+ binding” value in assay [1] was “Strong binding (means an affinity constant (Ka) equal or greater than 10^5 M^−1)”. In addition, in [2], the “proliferation index Nt/N0 (FIG. 1)” value was “clearly inhibits the proliferation”. Moreover, the “proliferation index Nt/N0 (FIG. 2)” value in assay [3] is on record as “clearly inhibits the proliferation”. It took 1840 nM to reach half-maximal inhibition in [4] (IC50). Moreover, in assay [5], the IC50 is 1560 nM. The compound also came in with an IC50 in [6] of 2060 nM. This compound also yielded an IC50 in assay [7] of 1030 nM. Besides, the concentration for half-maximal inhibition (IC50) in assay [8] came out at 1010 nM. In assay [9], the MIC50 is 0.8 µM (≈ 0.558 µg/mL) and the MIC90 came out at 1.6 µM (≈ 1.12 µg/mL). In [10], the viability at 0.1 µM is 99.9%, the viability at 0.5 µM stood at 93.1%, the viability at 1 µM came to 75.8% and the viability at 1.5 µM was found to be 24.4%.

These data come from patent publication US20260015339A1, “CALIX[4]ARENES WITH HIGH ANTICANCER ACTIVITY” (UNIVERSITE GRENOBLE ALPES, priority 2023, published 2026).
